Data from PubChem BioAssay AID2060332 (Molecular Pharmacology Branch, DTP, NCI, 2025).

Test system: LG0567-F671-PDC multi-cell spheroid viability
Assay: Anticancer human tumor LG0567-F671-PDC patient-derived lung adenocarcinoma cell line growth inhibition [IpAb]
Details: for IC50: curve of first compound; for viability, T/C: stronger effect = lower value; active = viability on the fitted dose curve at most 10% of control; inactive = the rest
Method in brief: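 Multi-cell spheroids of 60% tumour cells, 25% HUVEC and 15% MSC in ultra-low-attachment U-bottom wells, treated with agents combined with ipatasertib or abemaciclib. Half-log ranges top out near clinical Cmax, or 10 microM when Cmax is unknown.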
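Note: viability read after 7 days of drug exposure.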
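Throughout, for viability, T/C: 100% = DMSO vehicle control luminescence.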

CC(=O)c1c(C)c2cnc(Nc3ccc(N4CCNCC4)cn3)nc2n(C2CCCC2)c1=O + CCN1CCN(Cc2ccc(Nc3ncc(F)c(-c4cc(F)c5nc(C)n(C(C)C)c5c4)n3)nc2)CC1
inactive: viability, T/C (second compound 0.01 µM, first compound 0.000949 µM) 74.8% | viability, T/C (second compound 0.01 µM, first compound 0.003 µM) 93.4% | viability, T/C (second compound 0.01 µM, first compound 0.00949 µM) 87.8% | viability, T/C (second compound 0.01 µM, first compound 0.03 µM) 62.5% | viability, T/C (second compound 0.01 µM, first compound 0.0949 µM) 82.8% | viability, T/C (second compound 0.01 µM, first compound 0.3 µM) 69.2% | viability, T/C (second compound 0.0316 µM, first compound 0.000949 µM) 83% | viability, T/C (second compound 0.0316 µM, first compound 0.003 µM) 65.1% | viability, T/C (second compound 0.0316 µM, first compound 0.00949 µM) 94.1% | viability, T/C (second compound 0.0316 µM, first compound 0.03 µM) 75.2% | viability, T/C (second compound 0.0316 µM, first compound 0.0949 µM) 55.4% | viability, T/C (second compound 0.0316 µM, first compound 0.3 µM) 57.4% | viability, T/C (second compound 0.1 µM, first compound 0.000949 µM) 84.4% | viability, T/C (second compound 0.1 µM, first compound 0.003 µM) 71.2% | viability, T/C (second compound 0.1 µM, first compound 0.00949 µM) 62.6% | viability, T/C (second compound 0.1 µM, first compound 0.03 µM) 80.2% | viability, T/C (second compound 0.1 µM, first compound 0.0949 µM) 60.3% | viability, T/C (second compound 0.1 µM, first compound 0.3 µM) 51.2% | viability, T/C (second compound 0.316 µM, first compound 0.000949 µM) 60.7% | viability, T/C (second compound 0.316 µM, first compound 0.003 µM) 51.7% | viability, T/C (second compound 0.316 µM, first compound 0.00949 µM) 67.1% | viability, T/C (second compound 0.316 µM, first compound 0.03 µM) 49.4% | viability, T/C (second compound 0.316 µM, first compound 0.0949 µM) 56.8% | viability, T/C (second compound 0.316 µM, first compound 0.3 µM) 50.7% | viability, T/C (second compound 1 µM, first compound 0.000949 µM) 53.4% | viability, T/C (second compound 1 µM, first compound 0.003 µM) 76.6% | viability, T/C (second compound 1 µM, first compound 0.00949 µM) 69% | viability, T/C (second compound 1 µM, first compound 0.03 µM) 65.5% | viability, T/C (second compound 1 µM, first compound 0.0949 µM) 63.7% | viability, T/C (second compound 1 µM, first compound 0.3 µM) 54.2%
> 300 nM: IC50 (second compound 0.01 µM) | IC50 (second compound 0.0316 µM) | IC50 (second compound 0.1 µM) | IC50 (second compound 0.316 µM) | IC50 (second compound 1 µM)

COc1c(OCCCN2CCOCC2)ccc2c3n(c(=NC(=O)c4cnc(N)nc4)nc12)CCN3 + CCN1CCN(Cc2ccc(Nc3ncc(F)c(-c4cc(F)c5nc(C)n(C(C)C)c5c4)n3)nc2)CC1
inactive: viability, T/C (second compound 0.01 µM, first compound 0.00316 µM) 85.5% | viability, T/C (second compound 0.01 µM, first compound 0.01 µM) 72.7% | viability, T/C (second compound 0.01 µM, first compound 0.0316 µM) 77.5% | viability, T/C (second compound 0.01 µM, first compound 0.1 µM) 41.6% | viability, T/C (second compound 0.01 µM, first compound 0.316 µM) 36.5% | viability, T/C (second compound 0.01 µM, first compound 1 µM) 31.8% | viability, T/C (second compound 0.0316 µM, first compound 0.00316 µM) 105% | viability, T/C (second compound 0.0316 µM, first compound 0.01 µM) 74.6% | viability, T/C (second compound 0.0316 µM, first compound 0.0316 µM) 60.5% | viability, T/C (second compound 0.0316 µM, first compound 0.1 µM) 43.1% | viability, T/C (second compound 0.0316 µM, first compound 0.316 µM) 34.5% | viability, T/C (second compound 0.0316 µM, first compound 1 µM) 17.6% | viability, T/C (second compound 0.1 µM, first compound 0.00316 µM) 73% | viability, T/C (second compound 0.1 µM, first compound 0.01 µM) 63.4% | viability, T/C (second compound 0.1 µM, first compound 0.0316 µM) 62.5% | viability, T/C (second compound 0.1 µM, first compound 0.1 µM) 40.4% | viability, T/C (second compound 0.1 µM, first compound 0.316 µM) 32.5% | viability, T/C (second compound 0.1 µM, first compound 1 µM) 26.6% | viability, T/C (second compound 0.316 µM, first compound 0.00316 µM) 67.8% | viability, T/C (second compound 0.316 µM, first compound 0.01 µM) 74.2% | viability, T/C (second compound 0.316 µM, first compound 0.0316 µM) 41.6% | viability, T/C (second compound 0.316 µM, first compound 0.1 µM) 33.2% | viability, T/C (second compound 0.316 µM, first compound 0.316 µM) 31.5% | viability, T/C (second compound 0.316 µM, first compound 1 µM) 20.5% | viability, T/C (second compound 1 µM, first compound 0.00316 µM) 69.7% | viability, T/C (second compound 1 µM, first compound 0.01 µM) 71.1% | viability, T/C (second compound 1 µM, first compound 0.0316 µM) 56% | viability, T/C (second compound 1 µM, first compound 0.1 µM) 43.2% | viability, T/C (second compound 1 µM, first compound 0.316 µM) 40.8% | viability, T/C (second compound 1 µM, first compound 1 µM) 25.1%
73.4 nM: IC50 (second compound 1 µM)
76.5 nM: IC50 (second compound 0.01 µM)
60.9 nM: IC50 (second compound 0.0316 µM)
60 nM: IC50 (second compound 0.1 µM)
22.8 nM: IC50 (second compound 0.316 µM)
